Data on two compounds can be found in patent US20240041767A1, “Mitochondria-Enriched Extracellular Vesicles” (Duquesne University of the Holy Spirit, priority 2022, published 2024).

One experiment relates to recipient hCMEC/D3 BECs. Briefly: Uptake of MitoT-red-EVs into recipient hCMEC/D3 cells, flow cytometry. Type of experiment: cell-based, human. As to conditions: cells pre-stained with 100 nM MitoT-red for 30 min. Here is the method:
Uptake of Mitotracker-labeled naïve and mito-EVs into the recipient hCMEC/D3 cells (isolation of mitochondria-labeled naïve and mito-EVs) hCMEC/D3 BECs and NIH/3T3 fibroblasts were cultured in T175 flasks to confluency. The complete growth medium was removed and cells were washed with 1× PBS. Cells were treated with 100 nM MitoTracker deep red (MitoT-red) diluted in serum-free medium for 30 min in a 37° C. humidified incubator, and following that, the cells were washed with 1× PBS. For naïve EVs, cells were incubated with serum-free medium for 48 h, whereas for mito-EVs, cells were incubated with serum-free medium containing 10 μM Resveratrol for 48 h. Post-incubation, the conditioned medium was collected into polystyrene centrifuge tubes. […] The EV protein content in MitoT-red-sEVs and MitoT-red-m/lEVs were determined using MicroBCA assay, and the samples were stored at −80° C. until further use.
Uptake of hCMEC/D3 BEC- and NIH/3T3 fibroblast-derived MitoT-red-EVs into recipient hCMEC/D3 cells using flow cytometry hCMEC/D3 BECs (P31) were seeded in a 48-well plate at a seeding density of 50,000 cells/well in complete growth medium and cultured for 48 hours in a humidified incubator at 37° C. […] For each sample, an aliquot of a 100 μL cell suspension was analyzed on an Attune N×T Flow cytometer and 10,000 events were recorded in FSC vs. SSC plots. […]
On the technique in general: In flow cytometry, cells or beads pass a laser one at a time.

The subject of experiment [1] is PGC-1α. Put plainly: PGC-1α protein expression by western blotting in Resveratrol-treated hCMEC/D3 BECs. As to conditions: hCMEC/D3 cells. Type of experiment: cell-based, human. Here is the method: (§1) Measurement of PGC-1α expression using western blotting (Activation of hCMEC/D3 brain endothelial cells and NIH/3T3 fibroblasts with Resveratrol and preparation of cell lysate for western blotting) hCMEC/D3 brain endothelial cells (BECs) and NIH/3T3 fibroblasts were seeded in a 24-well plate at 100,000 cells/well-seeding density in complete growth medium and cultured for 48 hours in a humidified incubator at 37° C. The cells were treated with different concentrations of Resveratrol ranging from 0.1 to 50 μM in complete growth medium for 24 h. Untreated cells were incubated with a complete growth medium and used as the control for the treatment groups. Post-treatment, the cells were washed with 1× PBS, and the cell suspension was collected in centrifuge tubes. The cell suspension was centrifuged at 300×g for 10 min at 4° C., washed with 1× PBS, and the cell pellet was lysed with 1× RIPA buffer containing 3 μg/mL aprotinin. The total protein concentration in the cell lysates was measured using a BCA assay.
(§2) Detection of PGC1α protein expression in hCMEC/D3 BECs and NIH/3T3 fibroblasts using western blotting A 40 μg cell lysate of untreated and Resveratrol treated hCMEC/D3 BECs and NIH/3T3 fibroblasts were mixed with 4× laemmli buffer and distilled water. The mixture was heated at 95° C. for 5 min using a heating block (Thermo Scientific). Denatured samples and standard molecular weight markers (ladder, 250-25 kD) were separated on a 4-10% gradient sodium dodecyl sulfate polyacrylamide gel at 120 V for 90 min using a PowerPac Basic setup (Bio-Rad Laboratories, Inc.). The gel was washed with deionized water for 30 min, and the proteins were transferred from the gel to a 0.45 μm nitrocellulose membrane using a transfer assembly (Bio-Rad Laboratories, Inc.) at 75 V and 300 mA for 90 min. Following that, the membrane was washed with tris-buffered saline pH 7.4 containing 1% tween 20 (T-TBS) for 45 min and blocked with Intercept blocking buffer (Li-COR Inc., Lincoln, NE) for an hour at room temperature. […]
Background: In western blotting, separated proteins are transferred to a membrane and probed.

The subject of experiment [2] is PGC-1α. Put plainly: PGC-1α protein expression by western blotting in Resveratrol-treated NIH/3T3 fibroblasts. As to conditions: NIH/3T3 cells, 24 h, vs untreated cells. Type of experiment: cell-based, mouse. Here is the method: as §1, §2

As for `C[N+]1=C(/C=C/C=C/C=C2\N(Cc3ccc(CCl)cc3)c3ccccc3C2(C)C)C(C)(C)c2ccccc21.[Cl-]` [MitoT-red], the “MitoT+ve cells, positive control” value in the experiment with recipient hCMEC/D3 BECs is “about 77%”.

Regarding `Oc1ccc(C=Cc2cc(O)cc(O)c2)cc1` [Resveratrol], the “PGC-1α and GAPDH protein expression” value with PGC-1α [1] (Resveratrol 10 μM to 50 μM, 24 h) is “gradual and considerable decrease”. Besides, the “PGC-1α protein band densities” value with PGC-1α [1] (Resveratrol 0.1 and 1 μM, 24 h, vs untreated cells) was “slight increase”. Moreover, the “increase in normalized PGC-1α protein expression” value with PGC-1α [1] (Resveratrol up to 1 μM, vs untreated cells) is reported as 5%. Also, the “normalized PGC-1α expression” value in the experiment on PGC-1α [2] (10 μM Resveratrol) is reported as “statistically significant (p<0.01) increase”. For the same compound, the PGC-1α expression result in the experiment with PGC-1α [2] (50 μM Resveratrol) is given as “considerable (p=0.07) decrease”. The “normalized PGC-1α expression (densitometry)” value in the experiment with PGC-1α [2] (Resveratrol 0.1 to 50 μM) is given as “concentration-dependent increase in PGC-1α expression”.
